Source: US12433860B2, “Treatment of multiple sclerosis comprising DHODH inhibitors” (Immunic AG, priority 2021, dated 2025)
“And” between values parts separate entries of the source, which are not always exact repeats. Identical values can stand only once. Counter-ions that a name gives are not always drawn.

Key:
[1] = test system: patients with relapsing-remitting multiple sclerosis; assay: EMPhASIS phase 2 trial Cohort 1: MRI lesions up to 24 weeks; type: in vivo, human
Method: Study design and participants: […] Eligible patients were randomly assigned in a 1:1:1 ratio by an interactive web response system to receive once-daily vidofludimus calcium (30 mg or 45 mg) or placebo over a 24 week period. Procedures: Participants took vidofludimus calcium (30 mg or 45 mg) or placebo once daily in the morning in a fasted state (before breakfast) for 24 weeks. To minimize the risk of changes to uric acid during the first seven days of dosing (induction phase), the assigned dose (containing vidofludimus calcium 15 mg, vidofludimus calcium 22.5 mg or placebo) was taken days 0-6 and then the full dose thereafter (maintenance phase). Participants underwent standardized brain MRI scans at baseline and every 6 weeks after the first day of dosing until week 24. MRI scans were centrally analyzed by a blinded and independent MRI center. […] In the case of suspected or protocol-defined confirmed relapse, corticosteroid treatment was provided at the discretion of the investigator. Pharmacokinetic and pharmacodynamic measurements were also collected. Outcomes: The primary endpoint was the difference in the cumulative number of combined unique active (CUA) lesions up to week 24 between vidofludimus calcium 45 mg and placebo in the intention-to-treat population (i.e., weeks 6 to 24). The key secondary was the same outcome between vidofludimus calcium 30 mg and placebo. A sensitivity analysis of the primary endpoint and key secondary endpoint was done in the per-protocol population and the modified intention-to-treat population. In addition, prespecified subgroup analyses of the primary endpoint and key secondary endpoint in the intention-to-treat population were done based on baseline demographics (gender, age, weight, country), MRI characteristics (gadolinium-enhancing lesions strata) and clinical characteristics (EDSS score, duration of disease and relapse history). […] Other secondary endpoints included: the difference in the cumulative number of combined unique active lesions up to week 24 between vidofludimus calcium 45 mg and vidofludimus calcium 30 mg; number or cumulative number of gadolinium-enhancing, T1, or T2 lesions up to 24 weeks; annualized relapse rate from baseline until week 24; proportion of relapse-free patients up to week 24; time-to-first relapse; change in EDSS score from baseline; proportion of patients with EDSS score progression; brain atrophy and other MRI endpoints; and safety and tolerability as assessed by the investigators. Annualized relapse rate was defined as the total number of confirmed relapses divided by the real exposure time in years assessed over the time during the double-blind treatment period. EDSS progression was defined as an increase compared to baseline of at least 1.0 point for patients with a baseline EDSS score of 1.0 to 4.0 or of at least 1.5 points for patients with a baseline EDSS score of 0. Vidofludimus calcium trough concentrations (weeks 6 and 24) were used to assess the correlation between pharmacokinetics and MRI-based assessments. The effects of vidofludimus calcium on serum neurofilament (baseline and week 24) were also analyzed. Statistical analysis: The primary and secondary efficacy endpoints were analyzed using a generalized linear model with a negative binomial distribution and a logarithmic link function. Independent effects included in the model were: treatment group; baseline volume of T2 lesions; MRI field strength; and baseline number of gadolinium-enhancing lesions. The natural log transformation of the time from the first dose to the date of the last MRI assessment was included as an offset term to account for different lengths of treatment.

[2] = in vivo; cited from earlier work
[3] = test system: patients with relapsing-remitting multiple sclerosis; details: in vivo
Method: (§1) Adverse events were assessed at screening, baseline, day 7, and weeks 6, 12, 18, and 24 and all unscheduled clinic visits. Routine clinical chemistries, haematology, liver function tests, and urinalysis were collected at baseline, day 7, and weeks 6, 12, 18, and 24. Vital signs and electrocardiogramere conducted at screening and regularly scheduled intervals. Adverse events of special interest included: red blood cells in urine, haematuria, and retroperitoneal colicky pain with suspected or confirmed nephrolithiasis.
(§2) The intention-to-treat population was defined as all randomized patients who received at least one dose of placebo or vidofludimus calcium and were analyzed by the groups to which they were randomized. The safety population included all randomized patients who received at least one dose of placebo or vidofludimus calcium and was analyzed by the treatment assigned. The per-protocol population was defined as all randomized patients receiving at least one dose of placebo or vidofludimus calcium and no violations of major protocol criteria during treatment. The modified intention-to-treat population was defined as all randomized patients receiving at least one dose of placebo or vidofludimus calcium and having all MRI scans available for analysis.

[4] = test system: patients with RRMS and evidence of active disease; assay: EMPhASIS Cohort 2 interim analysis: MRI lesions up to Week 12; type: in vivo, human; details: for Cumulative number of New Gd+ lesions up to Week 12, Mean / Cumulative number of CUA MRI lesions up to Week 12, Mean / Patients without CUA MRI lesions over 12 weeks / Patients without New Gd+ lesions over 12 weeks: mFAS; for Cumulative number of New Gd+ lesions up to Week 12, Mean: placebo 3.5; for Cumulative number of CUA MRI lesions up to Week 12, Mean: placebo 4.4; for Patients without CUA MRI lesions over 12 weeks: placebo 41.4; for Patients without CUA MRI lesions over 12 weeks / Patients without New Gd+ lesions over 12 weeks: listed as IMU-838; for Patients without New Gd+ lesions over 12 weeks: placebo 49.3
[5] = test system: patients with relapsing-remitting multiple sclerosis; assay: EMPhASIS Cohort 1: safety and tolerability; details: for proportion of patients with at least one treatment-emergent adverse event: 24 weeks, placebo 44%; for patients who discontinued the study treatment prematurely: placebo 7%
Method: as §1, §2

[6] = test system: experimental autoimmune encephalomyelitis; details: rodents; cited from earlier work

Structure (SMILES): COc1cccc(-c2ccc(NC(=O)C3=C(C(=O)O)CCC3)c(F)c2)c1 [vidofludimus calcium, 1-cyclopentene-1-carboxylic acid, 2-(((3-fluoro-3′-methoxy(1,1′-biphenyl)-4-yl)amino)carbonyl)-, calcium salt (2:1)]
- suppression of MRI activity ([1]; 30 mg dose, after 24-weeks of treatment, rrMS): 70%
- cumulative number of new gadolinium-enhancing lesions at week 24 ([1]; 30 mg once daily): 4.5 (95% Cl 2.7-7.7)
- Cumulative CUA lesions up to 24 weeks, adjusted mean (95% CI) ([1]; 30 mg once daily, key secondary endpoint analysis (30 mg vs placebo), intention-to-treat): 4.0 (2.2-7.2)
- Cumulative CUA lesions up to 24 weeks, adjusted mean (95% CI) ([1]; 30 mg once daily, secondary endpoint analysis (45 mg vs 30 mg), intention-to-treat): 4.2 (2.5-7.1)
- Rate ratio, cumulative CUA lesions up to 24 weeks ([1]; 30 mg vs placebo, intention-to-treat): 0.30
- cumulative number of new gadolinium-enhancing lesions at week 24 ([1]; 45 mg once daily): 4.0 (95% Cl 2.1-7.8)
- Cumulative CUA lesions up to 24 weeks, adjusted mean (95% CI) ([1]; 45 mg once daily, primary endpoint analysis (45 mg vs placebo), intention-to-treat): 2.4 (1.1-4.9)
- Cumulative CUA lesions up to 24 weeks, adjusted mean (95% CI) ([1]; 45 mg once daily, secondary endpoint analysis (45 mg vs 30 mg), intention-to-treat): 4.4 (2.4-8.1)
- Rate ratio, cumulative CUA lesions up to 24 weeks ([1]; 45 mg vs placebo, intention-to-treat): 0.38
- Rate ratio, cumulative CUA lesions up to 24 weeks ([1]; secondary endpoint (45 mg vs 30 mg), printed in the 30 mg line): 0.96
- half-life [2]: approximately 30 h
- deaths during the trial [3]: No deaths occurred
- suppression of Gd+ lesions at Week 12 compared with placebo ([4]; 10 mg): 40%
- Cumulative number of New Gd+ lesions up to Week 12, Mean ([4]; 10 mg (C2)): 2.0
- suppression of CUA lesions at Week 12 compared with placebo ([4]; 30 mg): 68%
- suppression of Gd+ lesions at Week 12 compared with placebo ([4]; 30 mg): 66%
- Cumulative number of New Gd+ lesions up to Week 12, Mean ([4]; 30 mg (C1)): 1.2
- Cumulative number of CUA MRI lesions up to Week 12, Mean ([4]; 30 mg (C1)): 1.4
- Patients without CUA MRI lesions over 12 weeks ([4]; 30 mg (C1)): 62% and 61.5%
- Patients without New Gd+ lesions over 12 weeks ([4]; 30 mg (C1)): 66% and 66.2%
- suppression of CUA lesions at Week 12 compared with placebo ([4]; 45 mg): 75%
- suppression of Gd+ lesions at Week 12 compared with placebo ([4]; 45 mg): 74%
- Cumulative number of New Gd+ lesions up to Week 12, Mean ([4]; 45 mg (C1)): 0.9
- Cumulative number of CUA MRI lesions up to Week 12, Mean ([4]; 45 mg (C1)): 1.1
- Patients without CUA MRI lesions over 12 weeks ([4]; 45 mg (C1)): 55% and 54.5%
- Patients without New Gd+ lesions over 12 weeks ([4]; 45 mg (C1)): 61% and 60.6%
- patients experiencing serious adverse events ([5]; 30 mg group, considered unrelated to treatment): 2 patients
- proportion of patients with at least one treatment-emergent adverse event ([5]; 30 mg): 45%
- patients who discontinued the study treatment prematurely ([5]; 30 mg): 3%
- patients who met hepatotoxicity stopping rules ([5]; 45 mg group): two
- proportion of patients with at least one treatment-emergent adverse event ([5]; 45 mg): 41%
- patients who discontinued the study treatment prematurely ([5]; 45 mg): 6%
- Serious adverse events ([5]; across treatment groups): 0-3%
- Renal treatment-emergent events, patients ([5]; any dose, placebo 1%): 2%
- Hepatic treatment-emergent adverse events, patients ([5]; any dose, placebo 4%): 4%
- Adverse events of special interest, patients ([5]; any dose, ureterolithiasis, placebo 1%): 1%
- tolerability ([5]; both doses (30 mg and 45 mg)): well tolerated
- cardiovascular, haematological, infectious or malignancy-related adverse events ([5]; in vivo): No remarkable cardiovascular, haematological, infectious or malignancy-related adverse events
- changes in haematologic laboratory values (neutrophil, lymphocyte, leukocyte count) ([5]; in vivo): No changes
- changes in serum uric acid ([5]; over 24 weeks, any treatment group): No marked changes
- discontinuations attributable to treatment-emergent adverse events ([5]; vidofludimus calcium groups, placebo n=3): 2 patients
- Alopecia, fatigue, rash, and cystitis treatment-emergent adverse events not recorded in placebo-treated patients ([5]; vidofludimus calcium-treated patients): 1-4%
- activity in experimental autoimmune encephalomyelitis [6]: dose-dependent activity
